Patent US9079913B2, “Spiro-oxindole MDM2 antagonists” (The Regents of the University of Michigan, priority 2009, dated 2015)
Like-named read-outs stand apart in the source and are kept apart here.

Columns and labels:
[1] = In vitro microsomal stability, human; type: in vitro ADME; conditions: for Microsomal stability, % remaining: Human Microsome, same batch; for microsomal stability (in words) / % of compound remaining when incubated in human liver microsomes with NADPH: human liver microsomes; for half-life: human, liver microsomes
[2] = In vitro microsomal stability, rat; type: in vitro ADME; conditions: for Microsomal stability, % remaining: Rat Microsome, same batch; for microsomal stability (in words) / % of compound remaining when incubated in rat liver microsomes with NADPH: rat liver microsomes; for half-life: rat, liver microsomes
[3] = molecular target: recombinant human His-tagged MDM2 protein (residues 1-118) (Homo sapiens (Human), UniProt Q00987); assay: Fluorescence-polarization MDM2 binding assay; conditions: for IC50: Table 19A, FP binding assay, read-out: MDM2 IC50;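 as to all read-outs here: fluorescence polarization read after three hours of incubation in potassium phosphate buffer containing bovine gamma globulin and Triton X-100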
Chain of recombinant human His-tagged MDM2 protein (residues 1-118) (Q00987 1-118): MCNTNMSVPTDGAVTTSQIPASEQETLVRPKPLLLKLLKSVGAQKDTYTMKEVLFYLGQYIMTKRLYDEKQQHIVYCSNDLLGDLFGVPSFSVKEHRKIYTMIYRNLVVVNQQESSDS
Experimental: The assay was performed in the buffer: 100 mM potassium phosphate, pH 7.5; 100 μg/mL bovine gamma globulin; 0.02% sodium azide, 0.01% Triton X-100) and the polarization values were measured after 3 h of incubation using an ULTRA READER (Tecan U.S. Inc., Research Triangle Park, N.C.). […] The Kd value was calculated using the equation: Kd value=IC50−L0/2.
The polarization values were measured after 3 h of incubation. […] Curve fitting was performed using [sequence] PRISM software (GraphPad Software, Inc., San Diego, Calif.). […] Compounds shown in Tables 19A-D as the free base were tested either as the free base or as the CF3CO2H (TFA) or HCl salt.

[4] = system: Isogenic HCT-116 colon cancer cell lines; assay: cells; type: cell-based; conditions: cell growth;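 also: cells grown in 96-well plates in McCoy's 5A medium with 10% FBS, exposed to compound for 4 days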
Experimental: Cells were seeded in 96-well flat bottom cell culture plates at a density of 2−3×10^3 cells/well with compounds and incubated for 4 days.

[5] = Pharmacokinetic studies in rats; type: in vivo, rat; conditions: for oral bioavailability / oral pharmacokinetics in rats (in words): oral dosing; for bioavailability / half-life / AUC(0-t) / Cmax: male rats, oral dose 15 mg/kg; for AUC(0-t): read-out: AUC(0-t); for Cmax: read-out: Cmax
Experimental: Pharmacokinetic studies on MDM2 inhibitors were carried out in rat. For comparison, the MDM2 inhibitor, AT-219, was also studied.

[6] = system: cancer cell lines with wild-type p53 / mutated or deleted p53 (ATCC); assay: Cell growth assay (WST-8), other cancer cell lines; type: cell-based
[7] = human liver microsomes with NADPH
[8] = rat liver microsomes with NADPH
[9] = Homo sapiens, HCT-116, read-out: HCT-116 (p53-/-) IC50, Table 19A, HCT-116 p53-/-
[10] = Homo sapiens, HCT-116, read-out: HCT-116 (p53 wild-type) IC50, Table 19A, HCT-116 p53 wild-type
[11] = Homo sapiens, LNCaP, Table 19A, LNCAP cells, p53 wild-type, cell growth, read-out: LNCAP (p53 wild-type) IC50
[12] = Homo sapiens, PC-3, Table 19A, PC-3 cells, deleted p53, cell growth, read-out: PC-3 (deleted p53) IC50

Compound: CC(C)(C)C[C@H]1N[C@@H](C(=O)NCCC(C)(O)CO)[C@H](c2cccc(Cl)c2)[C@@]12C(=O)Nc1cc(Cl)c(F)cc12 (stereo partly shown) [MI-758]
- Microsomal stability, % remaining ([1]; 0 min): 100.00%
- Microsomal stability, % remaining ([1]; 5 min): 95.88%
- Microsomal stability, % remaining ([1]; 10 min): 89.21%
- Microsomal stability, % remaining ([1]; 15 min): 81.61%
- Microsomal stability, % remaining ([1]; 30 min): 65.20%
- Microsomal stability, % remaining ([1]; 45 min): 54.52%
- Microsomal stability, % remaining ([1]; 60 min): 51.45%
- microsomal stability (in words) [1]: improved stability over MI-219
- % of compound remaining when incubated in human liver microsomes with NADPH ([1]; 0 min): 100.00%
- % of compound remaining when incubated in human liver microsomes with NADPH ([1]; 5 min): 95.88%
- % of compound remaining when incubated in human liver microsomes with NADPH ([1]; 10 min): 89.21%
- % of compound remaining when incubated in human liver microsomes with NADPH ([1]; 15 min): 81.61%
- % of compound remaining when incubated in human liver microsomes with NADPH ([1]; 30 min): 65.20%
- % of compound remaining when incubated in human liver microsomes with NADPH ([1]; 45 min): 54.52%
- % of compound remaining when incubated in human liver microsomes with NADPH ([1]; 60 min): 51.45%
- half-life [1, 7]: 49.5 min
- Microsomal stability, % remaining ([2]; 0 min): 100.00%
- Microsomal stability, % remaining ([2]; 5 min): 96.52%
- Microsomal stability, % remaining ([2]; 10 min): 92.93%
- Microsomal stability, % remaining ([2]; 15 min): 82.50%
- Microsomal stability, % remaining ([2]; 30 min): 73.32%
- Microsomal stability, % remaining ([2]; 45 min): 69.33%
- Microsomal stability, % remaining ([2]; 60 min): 66.93%
- microsomal stability (in words) [2]: improved stability over MI-219
- % of compound remaining when incubated in rat liver microsomes with NADPH ([2]; 0 min): 100.00%
- % of compound remaining when incubated in rat liver microsomes with NADPH ([2]; 5 min): 96.52%
- % of compound remaining when incubated in rat liver microsomes with NADPH ([2]; 10 min): 92.93%
- % of compound remaining when incubated in rat liver microsomes with NADPH ([2]; 15 min): 82.50%
- % of compound remaining when incubated in rat liver microsomes with NADPH ([2]; 30 min): 73.32%
- % of compound remaining when incubated in rat liver microsomes with NADPH ([2]; 45 min): 69.33%
- % of compound remaining when incubated in rat liver microsomes with NADPH ([2]; 60 min): 66.93%
- half-life [2, 8]: 79.8 min
- IC50 [3]: < 1000 nM
- IC50 [4, 9]: 19100 ± 3600 nM
- IC50 [4, 10]: 600 nM
- oral bioavailability / oral pharmacokinetics in rats (in words) ([5]; rats): good oral bioavailability and pharmacokinetic parameters
- bioavailability ([5]; rat, plasma): 38%
- half-life ([5]; rat, plasma): 114 ± 6 min
- AUC(0-t) ([5]; rat, plasma): 4280 ± 2690 µg·h/mL
- Cmax ([5]; rat, plasma): 1490 ± 1120 ng/mL
- IC50 [6, 11]: 600 nM
- IC50 [6, 12]: 18700 ± 7100 nM

Compound: CC(C)(C)C[C@H]1N[C@@H](C(=O)NCC[C@H](O)CNC(C)(C)C)[C@H](c2cccc(Cl)c2)[C@@]12C(=O)Nc1cc(Cl)c(F)cc12 [MI-519-24]
- Microsomal stability, % remaining ([1]; 0 min): 100.00%
- Microsomal stability, % remaining ([1]; 5 min): 57.08%
- Microsomal stability, % remaining ([1]; 10 min): 53.92%
- Microsomal stability, % remaining ([1]; 15 min): 49.62%
- Microsomal stability, % remaining ([1]; 30 min): 47.41%
- Microsomal stability, % remaining ([1]; 45 min): 41.18%
- Microsomal stability, % remaining ([1]; 60 min): 41.42%
- % of compound remaining when incubated in human liver microsomes with NADPH ([1]; 0 min): 100.00%
- % of compound remaining when incubated in human liver microsomes with NADPH ([1]; 5 min): 57.08%
- % of compound remaining when incubated in human liver microsomes with NADPH ([1]; 10 min): 53.92%
- % of compound remaining when incubated in human liver microsomes with NADPH ([1]; 15 min): 49.62%
- % of compound remaining when incubated in human liver microsomes with NADPH ([1]; 30 min): 47.41%
- % of compound remaining when incubated in human liver microsomes with NADPH ([1]; 45 min): 41.18%
- % of compound remaining when incubated in human liver microsomes with NADPH ([1]; 60 min): 41.42%
- half-life [1, 7]: 11.2 min
- Microsomal stability, % remaining ([2]; 0 min): 100.00%
- Microsomal stability, % remaining ([2]; 5 min): 102.16%
- Microsomal stability, % remaining ([2]; 10 min): 86.33%
- Microsomal stability, % remaining ([2]; 15 min): 75.72%
- Microsomal stability, % remaining ([2]; 30 min): 68.24%
- Microsomal stability, % remaining ([2]; 45 min): 66.08%
- Microsomal stability, % remaining ([2]; 60 min): 61.51%
- microsomal stability (in words) [2]: improved stability over MI-219
- % of compound remaining when incubated in rat liver microsomes with NADPH ([2]; 0 min): 100.00%
- % of compound remaining when incubated in rat liver microsomes with NADPH ([2]; 5 min): 102.16%
- % of compound remaining when incubated in rat liver microsomes with NADPH ([2]; 10 min): 86.33%
- % of compound remaining when incubated in rat liver microsomes with NADPH ([2]; 15 min): 75.72%
- % of compound remaining when incubated in rat liver microsomes with NADPH ([2]; 30 min): 68.24%
- % of compound remaining when incubated in rat liver microsomes with NADPH ([2]; 45 min): 66.08%
- % of compound remaining when incubated in rat liver microsomes with NADPH ([2]; 60 min): 61.51%
- half-life [2, 8]: 48.5 min
- IC50 [3]: < 2000 nM
- IC50 [4, 9]: 6500 ± 700 nM
- IC50 [4, 10]: < 2000 nM
- oral bioavailability / oral pharmacokinetics in rats (in words) ([5]; rats): much inferior oral pharmacokinetic parameters
- bioavailability ([5]; rat, plasma): 1.1%
- half-life ([5]; rat, plasma): 192 ± 84 min
- AUC(0-t) ([5]; rat, plasma): 101 ± 62 µg·h/mL
- Cmax ([5]; rat, plasma): 35 ± 23 ng/mL
- IC50 [6, 11]: < 3000 nM
- IC50 [6, 12]: 3700 ± 200 nM

Compound: CC(C)(C)C[C@H]1N[C@@H](C(=O)NC2CCC(NS(C)(=O)=O)CC2)[C@H](c2cccc(Cl)c2F)[C@@]12C(=O)Nc1cc(Cl)ccc12 (stereo partly shown) [MI-771]
- microsomal stability (in words) [1]: very poor microsomal stability
- t1/2 [1, 7]: 3.12 min
- % of compound remaining when incubated in human liver microsomes with NADPH ([1]; 0 min): 100.00%
- % of compound remaining when incubated in human liver microsomes with NADPH ([1]; 5 min): 27.98%
- % of compound remaining when incubated in human liver microsomes with NADPH ([1]; 10 min): 10.82%
- % of compound remaining when incubated in human liver microsomes with NADPH ([1]; 15 min): 4.30%
- % of compound remaining when incubated in human liver microsomes with NADPH ([1]; 30 min): 0.82%
- % of compound remaining when incubated in human liver microsomes with NADPH ([1]; 45 min): 0.00%
- % of compound remaining when incubated in human liver microsomes with NADPH ([1]; 60 min): 0.00%
- microsomal stability (in words) [2]: very poor microsomal stability
- t1/2 [2, 8]: 2.69 min
- % of compound remaining when incubated in rat liver microsomes with NADPH ([2]; 0 min): 100.00%
- % of compound remaining when incubated in rat liver microsomes with NADPH ([2]; 5 min): 20.48%
- % of compound remaining when incubated in rat liver microsomes with NADPH ([2]; 10 min): 7.59%
- % of compound remaining when incubated in rat liver microsomes with NADPH ([2]; 15 min): 3.57%
- % of compound remaining when incubated in rat liver microsomes with NADPH ([2]; 30 min): 1.22%
- % of compound remaining when incubated in rat liver microsomes with NADPH ([2]; 45 min): 0.66%
- % of compound remaining when incubated in rat liver microsomes with NADPH ([2]; 60 min): 0.46%
- IC50 [3]: < 1000 nM
- binding to MDM2 (in words) ([3]; human MDM2 protein): high affinities
- IC50 [4, 10]: 1000 ± 300 nM
- IC50 ([4]; read-out: HCT-116 (p53-/-) IC50, Table 19A, HCT-116 p53-/-): 12000 ± 1100 nM
- CLz ([5]; rat, IV, 5 mg/kg, plasma, parent compound): 36.7 mL/min/kg
- Vd ([5]; rat, plasma, iv, 5 mg/kg, rat, IV, 5 mg/kg, plasma, parent compound, read-out: Vz): 7.1 L/kg
- pharmacokinetic profile (in words) ([5]; rats, intravenous and oral routes of dosing): very poor pharmacokinetic profile
- IC50 [6, 11]: 1100 ± 100 nM
- IC50 ([6]; Homo sapiens, SJSA-1, Table 19A, SJSA-1 cells, p53 wild-type, cell growth, read-out: SJSA-1 (p53 wild-type) IC50): 1200 ± 300 nM
- IC50 ([6]; Table 19A, PC-3 cells, deleted p53, cell growth, read-out: PC-3 (deleted p53) IC50): 13700 ± 4400 nM
- cell growth inhibition (in words) ([6]; cancer cell lines with wild-type p53): effectively inhibit cell growth
